In one data set the test system is LNCaP cells. The data set is described as follows: Assay on inhibitory activity for LNCaP cell proliferation (CCK-8). The class given is cell-based. The settings on record: 168 h incubation. The method in brief:
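Cells seeded at 1×10^5 cells/mL in phenol red-free 1640 with 2% CSS-FBS, treated at final 10000 nM-0.61 nM in duplicate. After 168 h incubation, viability read with CCK-8.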

Data set [1] in a line: In vitro stability in liver microsome. The class given is in vitro ADME. The settings on record: human liver microsome 0.5 mg/mL, NADPH, 37° C. On the procedure:
Liver microsome incubation samples (species: human, monkey, rat, and mouse) were prepared by mixing a PBS buffer (pH=7.4), a liver microsome solution (0.5 mg/mL), a test compound, and an NADPH+MgCl2 solution and incubated at 37° C. and 300 rpm for 1 h. Zero-hour samples were prepared by mixing a PBS buffer (pH=7.4), a liver microsome solution (0.5 mg/mL), and a test compound. An acetonitrile solution containing an internal standard was added to the samples, and supernatants were prepared by protein precipitation, diluted, and then assayed by LC/MS/MS.
Background: Liver microsomes are a subcellular fraction often used to study metabolism.

The target in the next data set is T1, AR in VCaP cells (Homo sapiens, UniProt P10275).
T1 construct: Assay on Degradation Activity for AR in VCaP Cells; endogenous in cells; host or cells: VCaP cells
T1 sequence (P10275 1-920): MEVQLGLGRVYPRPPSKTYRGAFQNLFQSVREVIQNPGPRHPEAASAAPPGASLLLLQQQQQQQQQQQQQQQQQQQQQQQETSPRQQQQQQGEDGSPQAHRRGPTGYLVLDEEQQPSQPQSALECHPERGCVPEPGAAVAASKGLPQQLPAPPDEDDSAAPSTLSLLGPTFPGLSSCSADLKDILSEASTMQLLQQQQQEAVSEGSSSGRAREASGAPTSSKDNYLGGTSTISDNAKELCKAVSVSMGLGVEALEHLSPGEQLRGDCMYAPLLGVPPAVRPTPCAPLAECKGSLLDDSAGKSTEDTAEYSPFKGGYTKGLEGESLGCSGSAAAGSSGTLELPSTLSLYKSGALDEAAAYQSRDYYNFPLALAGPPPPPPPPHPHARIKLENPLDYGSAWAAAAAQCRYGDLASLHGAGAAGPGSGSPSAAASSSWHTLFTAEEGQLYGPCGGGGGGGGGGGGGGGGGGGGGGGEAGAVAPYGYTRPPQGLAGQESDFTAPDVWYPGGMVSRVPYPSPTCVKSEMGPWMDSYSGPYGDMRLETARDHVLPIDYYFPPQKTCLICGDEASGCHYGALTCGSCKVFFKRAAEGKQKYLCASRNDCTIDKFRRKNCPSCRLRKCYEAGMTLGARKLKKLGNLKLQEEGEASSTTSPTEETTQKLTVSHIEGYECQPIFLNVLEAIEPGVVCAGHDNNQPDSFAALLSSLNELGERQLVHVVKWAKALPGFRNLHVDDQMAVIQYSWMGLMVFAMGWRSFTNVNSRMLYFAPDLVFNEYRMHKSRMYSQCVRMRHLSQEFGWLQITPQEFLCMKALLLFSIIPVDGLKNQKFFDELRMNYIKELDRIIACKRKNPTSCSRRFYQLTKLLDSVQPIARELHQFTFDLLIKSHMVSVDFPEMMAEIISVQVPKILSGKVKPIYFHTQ
The data set can be described thus: Assay on degradation activity for AR in VCaP cells (HTRF human androgen receptor detection kit). The class given is cell-based. Conditions: 24 h incubation. On the procedure: (§1) The detection was carried out using the HTRF HUMAN ANDROGEN RECEPTOR DETECTION KIT (cisbio, 64ANDRPEG), 4× Supplemented Lysis buffer was prepared using the Blocking reagent stock solution (100×) and Lysis buffer stock solution (4×), and 1× Supplemented Lysis buffer was prepared using the 4× Supplemented Lysis buffer and ddH2O. Premixed antibody solutions were prepared using Detection buffer, Androgen Receptor Eu Cryptate antibody, and Androgen Receptor d2 antibody.
(§2) VCaP cells in a good growth state were taken, washed with PBS, digested with pancreatin, and added with 2% CSS—FBS phenol red-free DMEM complete medium to terminate the digestion. The cells were collected by using a centrifuge tube, adjusted to a cell density of 1×10^6 cells/mL, and seeded in a 96-well plate (100 µL/well). The cells were incubated overnight in a cell incubator. Compounds were added using a nanoliter pipettor such that the final concentrations of the compounds were 1000 nM-0.977 nM. Two duplicate wells were set for each concentration, and meanwhile, a control was set. After another 24 h of incubation in the cell incubator, the medium was pipetted out, the 1× Supplemented Lysis buffer was added at 40 μL/well to lyse the cells. After the cells were oscillated for 40 min at room temperature, 16 μL of the cell lysate was added to a 384-well plate, the Premixed antibody solutions were added at 4 μL/well, and the mixture was left to stand at 25° C. for 2 h. Fluorescence values were detected at 665 nm/620 nm using an Envision microplate reader, the four-parameter analysis was performed, the dose-response curves were fit, and DC50 (the concentration of the drug when the degradation rate reaches 50%) and Dmax (the maximum degradation rate) were calculated.
(In general: Time-resolved FRET reads energy transfer from a long-lived donor to a nearby acceptor.)

The target in a further data set is T2, AR in LNCaP cells (Homo sapiens, UniProt P10275, T878A).
T2 construct: Assay on Degradation Activity for AR in LNCaP Cells; endogenous in cells; host or cells: LNCaP cells
T2 sequence (P10275 1-920 T878A): T1 sequence (P10275 1-920) with T878A
The data set can be described thus: Assay on degradation activity for AR in LNCaP cells (HTRF human androgen receptor detection kit). The class given is cell-based. Conditions: 24 h incubation; for DC50: HTRF. On the procedure: as §1
as §2, with “LNCaP” for “VCaP”, “1640” for “DMEM”, “μL/well).” for “µL/well).”, “500 nM-0.488” for “1000 nM-0.977”

The test system of the next data set is VCaP cells. The data set is described as follows: Assay on inhibitory activity for VCaP cell proliferation (CCK-8). The class given is cell-based. Conditions: 168 h incubation. In outline: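 VCaP cells seeded at 1×10^5 cells/mL in phenol red-free DMEM with 5% charcoal-stripped FBS, treated in duplicate at 10000–0.61 nM final. After 168 h incubation, viability was read with CCK-8.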

Where a chain is given by its changes, count along the chain named.

In turn, `N#Cc1ccc(O[C@H]2CC[C@H](NC(=O)c3ccc(N4CCC5(CC4)CN(C4Cc6ccc7c(C8CCC(=O)NC8=O)noc7c6C4)C5)nn3)CC2)cc1Cl` (single isomer, unassigned) [Compound 24] came in with an IC50 with LNCaP cells (Homo sapiens) of less than 1000 nM. Further, the “Human liver microsome Residuals at 60 min (%)” value in data set [1] is given as more than 85%.
In the data set with LNCaP cells, `N#Cc1ccc(O[C@H]2CC[C@H](NC(=O)c3ccc(N4CCC5(CC4)CN(C4Cc6ccc7c(C8CCC(=O)NC8=O)noc7c6C4)C5)nn3)CC2)cc1Cl` (single isomer, unassigned) [Compound 25] registered an IC50 of less than 1000 nM. For the same molecule, in data set [1], the “Human liver microsome Residuals at 60 min (%)” value is given as more than 85%.
As for `N#Cc1ccc(O[C@H]2CC[C@H](NC(=O)c3ccc(N4CCC(CN5CC6(Cc7ccc8c(C9CCC(=O)NC9=O)noc8c7C6)C5)CC4)nn3)CC2)cc1Cl` (stereo partly shown) [Compound 21], in the data set with LNCaP cells (Homo sapiens), the IC50 was less than 1000 nM. Also, the “Human liver microsome Residuals at 60 min (%)” value in data set [1] is more than 85%.
Take `N#Cc1ccc(O[C@H]2CC[C@H](NC(=O)c3cnc(N4CCN(C5CN(CC6Cc7ccc8c(C9CCC(=O)NC9=O)coc8c7C6)C5)CC4)nc3)CC2)cc1Cl` (stereo partly shown) [Compound 109]: the values for the DC50 at AR in VCaP cells and at AR in LNCaP cells were not above 1 nM and not above 20 nM, respectively. The Dmax at AR in LNCaP cells (maximum degradation rate) is more than 80%. The IC50 was less than 100 nM in the data set with VCaP cells (Homo sapiens, VCaP, 168 h) and less than 1000 nM with LNCaP cells (Homo sapiens).
Turning to `N#Cc1ccc(O[C@H]2CC[C@H](NC(=O)c3cnc(N4CCN(C5CN(CC6Cc7ccc8c(C9CCC(=O)NC9=O)coc8c7C6)C5)CC4)nc3)CC2)cc1Cl` (stereo partly shown) [Compound 110], the 50% degradation concentration (DC50) on AR in VCaP cells was not above 1 nM; on AR in LNCaP cells, not above 20 nM. At AR in LNCaP cells (maximum degradation rate), the “Degradation activity for AR in LNCaP cells (Dmax, %)” value is recorded as more than 80%. Moreover, the IC50 in the data set with VCaP cells is less than 100 nM; in the data set on LNCaP cells, less than 1000 nM.
Regarding `CN(c1ccc(C#N)c(Cl)c1)[C@H]1CC[C@H](NC(=O)c2cnc(N3CCC(CN4CCc5c(ccc6c(C7CCC(=O)NC7=O)noc56)C4)CC3)nc2)CC1` (stereo partly shown) [Compound 117], the DC50 at AR in VCaP cells was not above 1 nM; at AR in LNCaP cells it was not above 20 nM. Further, the Dmax at AR in LNCaP cells (maximum degradation rate) was more than 80%. The IC50 in the data set with VCaP cells (Homo sapiens) was less than 100 nM; in the data set with LNCaP cells (Homo sapiens), less than 1000 nM.
As for `CN(c1ccc(C#N)c(Cl)c1)[C@H]1CC[C@H](NC(=O)c2ccc(N3CCC(CN4CCc5c(ccc6c(C7CCC(=O)NC7=O)noc56)C4)CC3)nn2)CC1` (stereo partly shown) [Compound 118], the values for the DC50 on AR in VCaP cells and on AR in LNCaP cells were not above 1 nM and not above 20 nM, respectively. This molecule also had a Dmax on AR in LNCaP cells (maximum degradation rate) of more than 80%. Besides, the IC50 in the data set on VCaP cells (Homo sapiens) was less than 100 nM; in the data set on LNCaP cells (Homo sapiens), less than 1000 nM.
`N#Cc1ccc(O[C@H]2CC[C@H](NC(=O)c3cnc(N4CCC(CN5CCc6c(ccc7c(C8CCC(=O)NC8=O)noc67)C5)CC4)cn3)CC2)cc1Cl` (stereo partly shown) [Compound 145]: the DC50 at AR in VCaP cells was not above 1 nM; at AR in LNCaP cells, not above 20 nM. Further, the Dmax on AR in LNCaP cells (maximum degradation rate) was more than 80%. For the same molecule, the results for the IC50 with VCaP cells (Homo sapiens) and in the data set on LNCaP cells (Homo sapiens) were less than 100 nM and less than 1000 nM, respectively.

One may read the IC50 as the midpoint of a concentration-inhibition curve. Lower therefore signals greater potency in that assay. In general, DC50 refers to the concentration at which degradation of the target reaches its halfway point. Higher therefore signals degradation only at high concentration. What is called Dmax is the largest share of the target that was removed.

The record behind these values is patent US20260035384A1, “COMPOUND CONTAINING CYCLOHEXYL” (CHIA TAI TIANQING PHARMACEUTICAL GROUP CO., LTD., priority 2022, published 2026).
